# Biological target: c-Met kinase (h-Met; histidine-tagged c-Met catalytic domain fusion protein) (Homo sapiens (Human), UniProt P08581)
# Assay: In Vitro c-Met Kinase Enzyme Assays
# Assay type: biochemical
# Details: phosphorylation of poly Glu-Tyr, 5 μM ATP, 25 minutes at 30° C.
# Procedure, shortened: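 His-tagged c-Met catalytic domain reacted 25 min at 30° C, within the linear initial-rate range. Phosphotyrosine detected by ELISA with peroxidase-labeled anti-phospho-tyrosine antibody and TMB, OD read at 450 nm (540 nm correction); IC50 from curve fit.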
# c-Met kinase (h-Met; histidine-tagged c-Met catalytic domain fusion protein), sequence (P08581 1078-1345): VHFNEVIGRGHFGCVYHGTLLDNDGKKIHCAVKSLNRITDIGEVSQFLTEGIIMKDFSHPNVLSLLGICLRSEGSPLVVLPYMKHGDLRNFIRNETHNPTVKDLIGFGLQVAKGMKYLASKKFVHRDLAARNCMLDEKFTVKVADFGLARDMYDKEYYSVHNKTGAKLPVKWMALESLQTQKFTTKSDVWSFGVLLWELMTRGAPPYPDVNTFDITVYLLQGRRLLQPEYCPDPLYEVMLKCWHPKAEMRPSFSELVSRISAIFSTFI
row,IC50 [µM],Structure (SMILES)
1,< 0.5,"COC(=O)N1CCC(CC#N)(n2cc(-c3cnc4ncc(Cc5ccc6ncccc6c5)n4n3)cn2)CC1 [Example 203, Methyl 4-(cyanomethyl)-4-{4-[7-(quinolin-6-ylmethyl)imidazo[1,2-b][1,2,4]triazin-2-yl]-1H-pyrazol-1-yl}piperidine-1-carboxylate]"
2,< 0.5,"CNC(=O)c1ccc(-c2cnc3ncc(Sc4ccc(OC)cc4)n3c2)cc1Cl [Example 10, 2-chloro-4-3-[(4-methoxyphenyl)thio]imidazo[1,2-a]pyrimidin-6-yl-N-methylbenzamide]"
3,< 0.5,"CC(C)[C@H](NC(=O)c1ccc(-c2cnc3ncc(C4(c5ccc6ncccc6c5)CC4)n3c2)cc1Cl)C(=O)N(C)C [Example 181, 2-Chloro-N-(1S)-1-[(dimethylamino)carbonyl]-2-methylpropyl-4-[3-(1-quinolin-6-ylcyclopropyl)imidazo[1,2-a]pyrimidin-6-yl]benzamide]"
4,< 0.5,"O=C(NCC1CCCO1)c1ccc(-c2cnc3ncc(C4(c5ccc6ncccc6c5)CC4)n3c2)cc1 (stereo not shown) [Example 31, 4-[3-(1-Quinolin-6-ylcyclopropyl)imidazo[1,2-a]pyrimidin-6-yl]-N-(tetrahydrofuran-2-ylmethyl)benzamide]"
5,< 0.5,"O=C(NCc1ccncc1)c1ccc(-c2cnc3ncc(Cc4ccc5ncccc5c4)n3n2)cc1F [Example 153, 2-Fluoro-N-(pyridin-4-ylmethyl)-4-[7-(quinolin-6-ylmethyl)imidazo[1,2-b][1,2,4]triazin-2-yl]benzamide]"
6,< 0.5,"O=C(NCC1CC1)c1ccc(-c2cnc3ncc(Cc4ccc5ncccc5c4)n3n2)cc1F [Example 146, N-(Cyclopropylmethyl)-2-fluoro-4-[7-(quinolin-6-ylmethyl)imidazo[1,2-b][1,2,4]triazin-2-yl]benzamide]"
7,< 0.5,"O=C(c1ccc(-c2cnc3ncc(C4(c5ccc6ncccc6c5)CC4)n3c2)cc1)N1CCC(c2ccccn2)C1 (stereo not shown) [Example 38, 6-[1-(6-{4-[(3-Pyridin-2-ylpyrrolidin-1-yl)carbonyl]phenyl}imidazo[1,2-a]pyrimidin-3-yl)cyclopropyl]quinoline]"
8,< 0.5,"CNC(=O)c1ccc(-c2cnc3ncc(C4(c5ccc6ncccc6c5)CC4)n3n2)cc1F [Example 102, 2-Fluoro-N-methyl-4-[7-(1-quinolin-6-ylcyclopropyl)imidazo[1,2-b][1,2,4]triazin-2-yl]benzamide]"
9,< 0.5,"O=C(c1ccc(-c2cnc3ncc(C4(c5ccc6ncccc6c5)CC4)n3n2)cc1)N1CC[C@@H](O)C1 [Example 112, (3R)-1-{4-[7-(1-quinolin-6-ylcyclopropyl)imidazo[1,2-b][1,2,4]triazin-2-yl]benzoyl}pyrrolidin-3-ol]"
10,< 0.5,"CC(C)(C)[C@H](NC(=O)c1ccc(-c2cnc3ncc(C4(c5ccc6ncccc6c5)CC4)n3c2)cn1)C(=O)NC1CC1 [Example 60, N-(1S)-1-[(Cyclopropylamino)carbonyl]-2,2-dimethylpropyl-5-[3-(1-quinolin-6-ylcyclopropyl)imidazo[1,2-a]pyrimidin-6-yl]pyridine-2-carboxamide]"
11,< 0.5,"O=C(NC1CCN(c2ccccn2)C1)c1ccc(-c2cnc3ncc(C4(c5ccc6ncccc6c5)CC4)n3c2)cc1F (stereo not shown) [Example 167, 2-Fluoro-N-(1-pyridin-2-ylpyrrolidin-3-yl)-4-[3-(1-quinolin-6-ylcyclopropyl)imidazo[1,2-a]pyrimidin-6-yl]benzamide]"
12,< 0.5,"CN1CCCC1CCNC(=O)c1ccc(-c2cnc3ncc(Cc4ccc5ncccc5c4)n3n2)cc1F (stereo not shown) [Example 150, 2-Fluoro-N-[2-(1-methylpyrrolidin-2-yl)ethyl]-4-[7-(quinolin-6-ylmethyl)imidazo[1,2-b][1,2,4]triazin-2-yl]benzamide]"
13,< 3,"COc1ccc(Oc2cnc3ncc(-c4ccc(Br)cc4)cn23)cc1 [Example 16, 6-(4-Bromophenyl)-3-(4-methoxyphenoxy)imidazo[1,2-a]pyrimidine]"
14,< 0.5,"CN(C)C(=O)NCc1ccc(-c2cnc3ncc(C4(c5ccc6ncccc6c5)CC4)n3c2)cc1F [Example 67, N′-2-Fluoro-4-[3-(1-quinolin-6-ylcyclopropyl)imidazo[1,2-a]pyrimidin-6-yl]benzyl-N,N-dimethylurea]"
15,< 0.5,"O=C(NCC1CCCO1)c1ccc(-c2cnc3ncc(C4(c5ccc6ncccc6c5)CC4)n3c2)cc1F (stereo not shown) [Example 169, 2-Fluoro-4-[3-(1-quinolin-6-ylcyclopropyl)imidazo[1,2-a]pyrimidin-6-yl]-N-(tetrahydrofuran-2-ylmethyl)benzamide]"
16,< 0.5,"O=C(NCC1CCCO1)c1cnc2ncc(C3(c4ccc5ncccc5c4)CC3)n2c1 (stereo not shown) [Example 27, 3-(1-Quinolin-6-ylcyclopropyl)-N-(tetrahydrofuran-2-ylmethyl)imidazo[1,2-a]pyrimidine-6-carboxamide]"
17,< 0.5,"CN(CCN(C)c1ccccn1)C(=O)c1ccc(-c2cnc3ncc(C4(c5ccc6ncccc6c5)CC4)n3c2)cc1F [Example 173, 2-Fluoro-N-methyl-N-2-[methyl(pyridin-2-yl)amino]ethyl-4-[3-(1-quinolin-6-ylcyclopropyl)imidazo[1,2-a]pyrimidin-6-yl]benzamide]"
18,< 0.5,"NC(=O)c1ccc(-c2cnc3ncc(C4(c5ccc6ncccc6c5)CC4)n3n2)cc1F [Example 104, 2-Fluoro-4-(7-(1-(quinolin-6-yl)cyclopropyl)imidazo[1,2-b][1,2,4]triazin-2-yl)benzamide]"
19,< 0.5,"O=C(c1ccc(-c2cnc3ncc(C4(c5ccc6ncccc6c5)CC4)n3c2)cc1F)N1CC[C@H](F)C1 [Example 164, 6-{1-[6-(3-Fluoro-4-[(3S)-3-fluoropyrrolidin-1-yl]carbonylphenyl)imidazo[1,2-a]pyrimidin-3-yl]cyclopropyl}quinoline]"
20,< 0.5,"CNC(=O)c1ccc(-c2cnc3ncc(Cc4ccc5nccnc5c4)n3n2)cc1F [Example 71, 2-Fluoro-N-methyl-4-[7-(quinoxalin-6-ylmethyl)imidazo[1,2-b][1,2,4]triazin-2-yl]benzamide]"
21,< 0.5,"COc1ccc(Oc2cnc3ncc(-c4ccc(Br)c(F)c4)nn23)cc1 [Example 14, 2-(4-Bromo-3-fluorophenyl)-7-(4-methoxyphenoxy)imidazo[1,2-b][1,2,4]triazine]"
22,< 0.5,"CNC(=O)c1ccc(-c2ccc(-c3cnc4ncc(C5(c6ccc7ncccc7c6)CC5)n4n3)cc2)cn1 [Example 94, N-Methyl-5-{4-[7-(1-quinolin-6-ylcyclopropyl)imidazo[1,2-b][1,2,4]triazin-2-yl]phenyl}pyridine-2-carboxamide]"
23,< 0.5,"CCNC(=O)Nc1cccc(Cc2cnc3ncc(-c4ccc(Br)c(F)c4)nn23)c1 [Example 192, N-(3-[2-(4-Bromo-3-fluorophenyl)imidazo[1,2-b][1,2,4]triazin-7-yl]methylphenyl)-N′-ethylurea]"
24,< 0.5,"CC(C)C[C@@H](NC(=O)c1ccc(-c2cnc3ncc(Cc4ccc5ncccc5c4)n3n2)cc1F)C(=O)N(C)C [Example 136, N-{(1R)-1-[(Dimethylamino)carbonyl]-3-methylbutyl}-2-fluoro-4-[7-(quinolin-6-ylmethyl)imidazo[1,2-b][1,2,4]triazin-2-yl]benzamide]"
25,< 0.5,COC[C@@H](NC(=O)c1ccc(-c2cnc3ncc(C4(c5ccc6ncccc6c5)CC4)n3n2)cc1)C(C)C [Example 117]

# Source: US9944645B2, “Imidazotriazines and imidazopyrimidines as kinase inhibitors” (Incyte Holdings Corporation, priority 2006, dated 2018)
